Test results taken from patent US20040241653A1, “Methods for identifying marker genes for cancer” (priority 2001, published 2004).

What was measured:
p21 promoter = experiment: p21/Waf1 p53-responsive promoter CAT reporter assay in transfected LNCaP cells; assay type: cell-based, human; details: LNCaP cells co-transfected with p21-CAT reporter and wild type p53 plasmid; TSA 100 nM
Procedure: (§1) FIG. 2: Opposite regulatory effect of p53 on PSA and p21 promoters. Chloramphenicol acetyltransferase (CAT)-reporter constructs were used to estimate p53 influence on PSA and p21 promoter elements. […]
(§2) FIG. 3: Trichostatin A (TSA) treatment eliminates the effect p53 has on PSA promoter activity. […] TSA (100 nM) was added 5 h and CAT activity was measured 40 h post-transfection. […]
(§3) Since it has previously been shown that negative regulation of transcription by p53 may involve p53-mediated recruitment of histone deacetylases (HDAC) (Murphy et al., Genes Dev., i3:2490-2501 1999), the inventors set out to determine whether this would be also true for the PSA promoter. […] At the same time, TSA had no effect on p53-mediated transactivation as determined in a similar experiment employing the p21 promoter-driven CAT reporter construct (FIG. 3). […]

PSA promoter = experiment: PSA promoter/enhancer CAT reporter assay in transfected LNCaP cells; assay type: cell-based, human; details: LNCaP cells co-transfected with PSA-CAT reporter and wild type p53 plasmid; TSA 100 nM
Procedure: as §1, §2, §3

CC(/C=C/C(=O)NO)=C\[C@@H](C)C(=O)c1ccc(N(C)C)cc1 [TSA, Trichostatin A]
p53-mediated transactivation of p21 promoter-driven CAT reporter (p21 promoter): no effect
p53-mediated repression of PSA promoter driven transcriptional activity (CAT activity) (PSA promoter): completely abrogated
